# Measured values taken from PubChem BioAssay AID256 (DTP/NCI, 2004).
# Values joined by “and” are separate entries in the source; they are usually repeats but may differ in a detail not shown here. Equal entries are not always repeated. Inconclusive results and toxic doses are left out.
# System: CD2F1 mice, L1210 leukemia ip, survival T/C
# Assay: NCI In Vivo Anticancer Drug Screen. Data for tumor model L1210 Leukemia (intraperitoneal) in CD2F1 (CDF1) mice
# Settings: higher = longer survival
# Method in brief: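 In this screen, transplantable tumors were grown in mice given either the compound or its vehicle. Results were expressed as the treated measurement relative to the control measurement.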
# [1] = endpoint: mean survival time, dose: 100.0 mg/kg/injection, schedule: Q01DX009 (ip), vehicle: saline
# [2] = endpoint: mean survival time, dose: 100.0 mg/kg/injection, schedule: Q01DX009 (ip), vehicle: saline with Tween-80
# [3] = endpoint: mean survival time, dose: 200.0 mg/kg/injection, schedule: Q01DX009 (ip), vehicle: saline with Tween-80
# [4] = endpoint: mean survival time, dose: 400.0 mg/kg/injection, schedule: Q01DX009 (ip), vehicle: saline with Tween-80
# [5] = endpoint: mean survival time, dose: 100.0 mg/kg/injection, schedule: Q04DX003 (ip), vehicle: saline with Tween-80
# [6] = endpoint: mean survival time, dose: 200.0 mg/kg/injection, schedule: Q04DX003 (ip), vehicle: saline with Tween-80
# [7] = endpoint: mean survival time, dose: 400.0 mg/kg/injection, schedule: Q04DX003 (ip), vehicle: saline with Tween-80
smiles,measurement,setting,value
CCN(CC)CCNc1ccc(C)c2sc3ccccc3c(=O)c12,T/C,"endpoint: mean survival time, dose: 7.5 mg/kg/injection, schedule: Q01DX005 (ip), vehicle: water",103 % of control
same,T/C,"endpoint: mean survival time, dose: 15.0 mg/kg/injection, schedule: Q01DX005 (ip), vehicle: water",104 % of control
same,T/C,"endpoint: mean survival time, dose: 25.0 mg/kg/injection, schedule: Q01DX007 (ip), vehicle: saline",121 % of control
same,T/C,"endpoint: mean survival time, dose: 25.0 mg/kg/injection, schedule: Q01DX009 (ip), vehicle: saline",118 % of control
same,T/C,"endpoint: mean survival time, dose: 25.0 mg/kg/injection, schedule: Q03DX003 (ip), vehicle: saline",107 % of control
same,T/C,"endpoint: mean survival time, dose: 25.0 mg/kg/injection, schedule: Q04DX003 (ip), vehicle: saline",107 % of control
same,T/C,"endpoint: mean survival time, dose: 30.0 mg/kg/injection, schedule: Q01DX005 (ip), vehicle: water",106 % of control
same,T/C,"endpoint: mean survival time, dose: 50.0 mg/kg/injection, schedule: Q03DX003 (ip), vehicle: saline",112 % of control
same,T/C,"endpoint: mean survival time, dose: 50.0 mg/kg/injection, schedule: Q04DX003 (ip), vehicle: saline",114 % of control
same,T/C,"endpoint: mean survival time, dose: 100.0 mg/kg/injection, schedule: Q01DX007 (ip), vehicle: saline",163 % of control
same,T/C,[1],171 % of control
same,T/C,"endpoint: mean survival time, dose: 120.0 mg/kg/injection, schedule: Q01DX005 (ip), vehicle: water",110 % of control
same,T/C,"endpoint: median survival time, dose: 6.25 mg/kg/injection, schedule: Q01DX009 (ip), vehicle: water",116 % of control
same,T/C,"endpoint: median survival time, dose: 12.5 mg/kg/injection, schedule: Q01DX009 (ip), vehicle: water",121 % of control
same,T/C,"endpoint: median survival time, dose: 25.0 mg/kg/injection, schedule: Q01DX009 (ip), vehicle: saline with Tween-80",114 % of control
same,T/C,"endpoint: median survival time, dose: 25.0 mg/kg/injection, schedule: Q01DX009 (ip), vehicle: saline",116 % of control and 120 % of control and 100 % of control
same,T/C,"endpoint: median survival time, dose: 50.0 mg/kg/injection, schedule: Q01DX009 (ip), vehicle: water",165 % of control
same,T/C,"endpoint: median survival time, dose: 100.0 mg/kg/injection, schedule: Q01DX009 (ip), vehicle: saline with Tween-80",198 % of control
same,T/C,"endpoint: median survival time, dose: 100.0 mg/kg/injection, schedule: Q01DX009 (ip), vehicle: water",112 % of control
same,T/C,"endpoint: median survival time, dose: 200.0 mg/kg/injection, schedule: Q01DX009 (ip), vehicle: saline with Tween-80",118 % of control
O=C1CN=C(c2ccccc2)O1,T/C,"endpoint: median survival time, dose: 50.0 mg/kg/injection, schedule: Q04DX002 (ip), vehicle: saline with Tween-80",100 % of control
same,T/C,"endpoint: median survival time, dose: 100.0 mg/kg/injection, schedule: Q04DX002 (ip), vehicle: saline with Tween-80",100 % of control
same,T/C,"endpoint: median survival time, dose: 200.0 mg/kg/injection, schedule: Q04DX002 (ip), vehicle: saline with Tween-80",111 % of control
same,T/C,"endpoint: median survival time, dose: 400.0 mg/kg/injection, schedule: Q04DX002 (ip), vehicle: saline with Tween-80",100 % of control
COc1cc([N+](=O)[O-])ccc1NC(=O)OC/C=C/c1ccccc1,T/C,[2],92 % of control
same,T/C,[3],91 % of control
OCCOc1cccc(OCCO)c1,T/C,[2],96 % of control
same,T/C,[3],96 % of control
same,T/C,[4],115 % of control
CN(CCCN(C)N=Nc1ccccc1C(=O)O)N=Nc1ccccc1C(=O)O,T/C,"endpoint: mean survival time, dose: 100.0 mg/kg/injection, schedule: Q04DX003 (ip), vehicle: Klucel (hydroxypropylcellulose) (HPC)",102 % of control
same,T/C,"endpoint: mean survival time, dose: 200.0 mg/kg/injection, schedule: Q04DX003 (ip), vehicle: Klucel (hydroxypropylcellulose) (HPC)",100 % of control
same,T/C,"endpoint: mean survival time, dose: 400.0 mg/kg/injection, schedule: Q04DX003 (ip), vehicle: Klucel (hydroxypropylcellulose) (HPC)",98 % of control
O=C(NC/C=C/Br)Oc1cccc2ccccc12,T/C,"endpoint: mean survival time, dose: 100.0 mg/kg/injection, schedule: Q04DX002 (ip), vehicle: saline with Tween-80",101 % of control
same,T/C,"endpoint: mean survival time, dose: 200.0 mg/kg/injection, schedule: Q04DX002 (ip), vehicle: saline with Tween-80",93 % of control
same,T/C,"endpoint: mean survival time, dose: 400.0 mg/kg/injection, schedule: Q04DX002 (ip), vehicle: saline with Tween-80",101 % of control
C#CC(C)(C)CC(=O)O,T/C,[1],102 % of control
same,T/C,"endpoint: mean survival time, dose: 200.0 mg/kg/injection, schedule: Q01DX009 (ip), vehicle: saline",101 % of control
same,T/C,"endpoint: mean survival time, dose: 400.0 mg/kg/injection, schedule: Q01DX009 (ip), vehicle: saline",98 % of control
c1ccc(-n2c3ccccc3c3ccccc32)cc1,T/C,[2],98 % of control
same,T/C,[3],98 % of control
same,T/C,[4],95 % of control
Cc1cc(NC(C)CN(C)C)nc(/N=C(\N)Nc2ccc(Cl)c(Cl)c2)n1 (stereo not given),T/C,[5],96 % of control
CC(=O)[CH-]C(C)=O.O=[N+]([O-])O.[NH-]C1CCCCC1[NH-].[Pt+4] (stereo not given),T/C,"endpoint: mean survival time, dose: 1.25 mg/kg/injection, schedule: Q04DX003 (ip), vehicle: water",95 % of control
same,T/C,"endpoint: mean survival time, dose: 2.5 mg/kg/injection, schedule: Q04DX003 (ip), vehicle: water",98 % of control
same,T/C,"endpoint: mean survival time, dose: 5.0 mg/kg/injection, schedule: Q04DX003 (ip), vehicle: water",98 % of control
same,T/C,"endpoint: mean survival time, dose: 10.0 mg/kg/injection, schedule: Q04DX003 (ip), vehicle: water",110 % of control
COc1cc(CN(C)CCO)ccc1OCc1ccccc1,T/C,[5],102 % of control
same,T/C,[6],96 % of control
CC(C)C(C(=O)c1ccccc1)C(c1ccccc1)c1ccccc1 (stereo not given),T/C,"endpoint: mean survival time, dose: 100.0 mg/kg/injection, schedule: Q04DX003 (ip), vehicle: other",106 % of control
same,T/C,"endpoint: mean survival time, dose: 200.0 mg/kg/injection, schedule: Q04DX003 (ip), vehicle: other",97 % of control
same,T/C,"endpoint: mean survival time, dose: 400.0 mg/kg/injection, schedule: Q04DX003 (ip), vehicle: other",100 % of control
S=C(Nc1ccc(Cl)cc1)Nc1ccc(Cc2ccc(NC(=S)Nc3ccc(Cl)cc3)cc2)cc1,T/C,"endpoint: mean survival time, dose: 100.0 mg/kg/injection, schedule: Q01DX001 (ip), vehicle: Klucel (hydroxypropylcellulose) (HPC)",93 % of control
same,T/C,"endpoint: mean survival time, dose: 200.0 mg/kg/injection, schedule: Q01DX001 (ip), vehicle: Klucel (hydroxypropylcellulose) (HPC)",92 % of control
same,T/C,"endpoint: mean survival time, dose: 400.0 mg/kg/injection, schedule: Q01DX001 (ip), vehicle: Klucel (hydroxypropylcellulose) (HPC)",93 % of control
CCCCC(NCCNC(CCCC)C(=O)O)C(=O)O (stereo not given),T/C,[5],102 % of control
same,T/C,[6],91 % of control
same,T/C,[7],107 % of control
Cc1cccc(C)c1NC(=O)c1cccc(Cl)c1,T/C,[2],94 % of control
same,T/C,[5],98 % of control
same,T/C,[3],98 % of control
same,T/C,[6],96 % of control
same,T/C,[4],94 % of control
same,T/C,[7],98 % of control
O=C(CCc1ccc(C(=O)C[n+]2ccccc2)cc1)C[n+]1ccccc1,T/C,"endpoint: mean survival time, dose: 0.5 mg/kg/injection, schedule: Q04DX003 (ip), vehicle: saline",104 % of control
same,T/C,"endpoint: mean survival time, dose: 1.0 mg/kg/injection, schedule: Q04DX003 (ip), vehicle: saline",101 % of control
same,T/C,"endpoint: mean survival time, dose: 2.0 mg/kg/injection, schedule: Q04DX003 (ip), vehicle: saline",95 % of control
O=C1C=C(c2ccc(O)cc2)CO1,T/C,[5],97 % of control
same,T/C,[6],94 % of control
same,T/C,[7],97 % of control
Cn1c(-c2ccccc2N=NN2CCCCC2)nc(=N)c2ccccc21,T/C,"endpoint: mean survival time, dose: 6.25 mg/kg/injection, schedule: Q01DX005 (ip), vehicle: water",95 % of control
same,T/C,"endpoint: mean survival time, dose: 12.5 mg/kg/injection, schedule: Q01DX005 (ip), vehicle: water",95 % of control
CCNC(=S)NNc1ccccc1,T/C,"endpoint: mean survival time, dose: 50.0 mg/kg/injection, schedule: Q01DX009 (ip), vehicle: saline with Tween-80",103 % of control
same,T/C,[2],100 % of control
same,T/C,[3],88 % of control
CCCCCCCCC(=O)N1CCOCC1,T/C,[2],108 % of control
same,T/C,"endpoint: mean survival time, dose: 150.0 mg/kg/injection, schedule: Q04DX003 (ip), vehicle: saline",96 % of control
COC(=O)C1=C(NC(=O)Nc2ccc(OC)cc2)OC(C)(C)C1c1ccc(Cl)cc1 (stereo not given),T/C,[2],93 % of control
same,T/C,[5],92 % of control
same,T/C,[3],93 % of control
same,T/C,[6],87 % of control
same,T/C,[4],94 % of control
same,T/C,[7],92 % of control
CC1CCC2(OC1)OC1C(O)C3C4CCC5CC(OC6OC(CO)C(OC7OC(CO)C(O)C(OC8OCC(O)C(O)C8O)C7OC7OC(CO)C(O)C(OC8OC(CO)C(O)C(O)C8O)C7O)C(O)C6O)C(O)CC5(C)C4CCC3(C)C1C2C (stereo not given),T/C,"endpoint: mean survival time, dose: 5.0 mg/kg/injection, schedule: Q01DX009 (ip), vehicle: saline",92 % of control
same,T/C,"endpoint: mean survival time, dose: 6.25 mg/kg/injection, schedule: Q01DX001 (ip), vehicle: saline with Tween-80",96 % of control
same,T/C,"endpoint: mean survival time, dose: 10.0 mg/kg/injection, schedule: Q01DX009 (ip), vehicle: saline",93 % of control
same,T/C,"endpoint: mean survival time, dose: 12.5 mg/kg/injection, schedule: Q01DX001 (ip), vehicle: saline with Tween-80",103 % of control
same,T/C,"endpoint: mean survival time, dose: 20.0 mg/kg/injection, schedule: Q01DX009 (ip), vehicle: saline",96 % of control
same,T/C,"endpoint: mean survival time, dose: 25.0 mg/kg/injection, schedule: Q01DX001 (ip), vehicle: saline with Tween-80",100 % of control
same,T/C,"endpoint: mean survival time, dose: 40.0 mg/kg/injection, schedule: Q01DX009 (ip), vehicle: saline",102 % of control
CN(C)c1ccc(CN2CCCN(Cc3ccc(N(C)C)cc3)C2c2cc(Cl)ccc2O)cc1,T/C,[2],86 % of control
same,T/C,[5],98 % of control
same,T/C,[3],93 % of control
same,T/C,[6],92 % of control
same,T/C,[4],86 % of control
same,T/C,[7],92 % of control
